Patent US12371454B2, “Cyclic peptide compound having Kras inhibitory action” (priority 2019, dated 2025)
pIC50: −log10 of the molar value. Starred links: 1 amine or outer side, 2 acyl side, 3 side chain; linkers in the order of their positions; H or OH if unused. Positions of bridges follow the written chain, without caps; N, C: chain ends. Non-standard residues stand in square brackets, D forms with d. Residues, ends and D or L forms follow the SMILES beside them. *: point of attachment. hPhe(3-Cl-4-CF3) = N[C@@H](CCc1ccc(C(F)(F)F)c(Cl)c1)C(=O)O; hPhe(3-F,4-CF3) = N[C@@H](CCc1ccc(C(F)(F)F)c(F)c1)C(=O)O; hPhe(4-CF3) = N[C@@H](CCc1ccc(C(F)(F)F)cc1)C(=O)O; NMePhe(3,4-F2) = CN[C@@H](Cc1ccc(F)c(F)c1)C(=O)O; NMePhe(4-Cl) = CN[C@@H](Cc1ccc(Cl)cc1)C(=O)O; NMePhe(4-Me) = CN[C@@H](Cc1ccc(C)cc1)C(=O)O; NMePhe(3-F) = CN[C@@H](Cc1cccc(F)c1)C(=O)O; NMePhe(4-F) = CN[C@@H](Cc1ccc(F)cc1)C(=O)O; NMedβ3hAla = C[C@H](CC(=O)[*:2])N(C)[*:1]; NMeGly(cPent) = CN[C@H](C(=O)O)C1CCCC1; Phe(3-I) = N[C@@H](Cc1cccc(I)c1)C(=O)O; Pro(4,4-F2) = O=C(O)[C@@H]1CC(F)(F)CN1; NMeGly(cBu) = CN[C@H](C(=O)O)C1CCC1; NMeY = CN[C@@H](Cc1ccc(O)cc1)C(=O)O; NMeCha = CN[C@@H](CC1CCCCC1)C(=O)O; NMehLeu = CN[C@@H](CCC(C)C)C(=O)O; NMeChg = CN[C@H](C(=O)O)C1CCCCC1; NMeF = CN[C@@H](Cc1ccccc1)C(=O)O; NMeI = CC[C@H](C)[C@H](NC)C(=O)O; hPhe = N[C@@H](CCc1ccccc1)C(=O)O; NMeD = CN[C@@H](CC(=O)O)C(=O)O; NMeL = CN[C@@H](CC(C)C)C(=O)O; NMeV = CN[C@H](C(=O)O)C(C)C; d(β3hA) = C[C@@H](N)CC(=O)O; Azetidin(1-yl) = C1CN(*)C1; NMeS = CN[C@@H](CO)C(=O)O; Morpholide = C1CN(*)CCO1; NMeA = CN[C@@H](C)C(=O)O; NMeAib = CNC(C)(C)C(=O)O; Nle = CCCC[C@H](N)C(=O)O; Piperidide = C1CCN(*)CC1; Pra = C#CC[C@H](N)C(=O)O; Pyrrolidide = C1CCN(*)C1; Ac5c = NC1(C(=O)O)CCCC1; Aze = O=C(O)[C@@H]1CCN1; Ac4c = NC1(C(=O)O)CCC1; βAla = NCCC(=O)O; Sar = CNCC(=O)O; Propyl = CCC*

Target: T1, Kras and SOS1 (biotin-tagged human Kras loaded with GDP, His-tagged human SOS1) (Homo sapiens, UniProt P01116, G12D)
T1 construct: made in house; host or cells: E. coli (stated for Kras only)
Assay: Protein-protein interaction inhibition between Kras and SOS1 (KrasGl2D-SOS PPI) using AlphaScreen
Assay type: binding
Conditions: AlphaScreen; biotin-tagged human Kras loaded with GDP, His-tagged human SOS1; read-out: KRAS G12D-SOS PPI IC50
Outline: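 Binding between SOS1 and Kras is detected as bead-proximity luminescence: illuminate Ni-conjugated donors (680 nm), collect 520-620 nm emission from streptavidin-conjugated acceptors; Kras carries biotin and GDP loaded after purification, SOS1 carries a His tag.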

T1 sequence (P01116 1-188 isoform P01116-2 G12D): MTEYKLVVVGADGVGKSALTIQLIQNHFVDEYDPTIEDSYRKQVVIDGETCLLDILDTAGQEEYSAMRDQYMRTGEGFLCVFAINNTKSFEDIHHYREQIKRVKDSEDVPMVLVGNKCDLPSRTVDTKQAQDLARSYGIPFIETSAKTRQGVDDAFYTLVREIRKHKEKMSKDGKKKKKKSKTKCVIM

| Compound | pIC50 |
| --- | --- |
| CC[C@H](C)[C@@H]1NC(=O)[C@H](C)N(C)C(=O)C[C@@H](C)NC(=O)[C@H](CC(C)C)N(C)C(=O)[C@H](Cc2ccccc2)N(C)C(=O)[C@@H]2CCN2C(=O)[C@H](CCc2ccc(C(F)(F)F)cc2)NC(=O)CN(C)C(=O)[C@H](Cc2ccc(Cl)cc2)N(C)C(=O)CN(C)C(=O)CN(C)C1=O [Compound 654] (cyclo([Aze][NMeF][NMeL][d(β3hA)][NMeA]I[Sar][Sar][NMePhe(4-Cl)][Sar][hPhe(4-CF3)])) | 6.96 |
| CC(C)C[C@H]1C(=O)N[C@@H](C(C)C)C(=O)N(C)CC(=O)N(C)CC(=O)N(C)[C@@H](CC2CCCCC2)C(=O)N(C)CC(=O)N[C@@H](CCc2ccc(C(F)(F)F)c(Cl)c2)C(=O)N2CCC[C@H]2C(=O)NC2(CCCC2)C(=O)N(C)[C@@H](CC(C)C)C(=O)N[C@H](C)CC(=O)N1C [Compound 1452] (cyclo([Ac5c][NMeL][d(β3hA)][NMeL]V[Sar][Sar][NMeCha][Sar][hPhe(3-Cl-4-CF3)]P)) | 7.42 |
| CCCC[C@@H]1NC(=O)[C@H](Cc2cccc(I)c2)NC(=O)CN(C)C(=O)[C@H](Cc2ccc(Cl)cc2)N(C)C(=O)CN(C)C(=O)CN(C)C(=O)[C@H]([C@@H](C)CC)NC(=O)[C@H](CC(C)C)N(C)C(=O)C[C@@H](C(=O)N2CCCCC2)N(C)C(=O)[C@H](CC(C)C)NC(=O)[C@H](Cc2ccc(Cl)cc2)N(C)C1=O [Compound 934] ([NMeL]I[Sar][Sar][NMePhe(4-Cl)][Sar][Phe(3-I)][Nle][NMePhe(4-Cl)]L[NMeD]-Piperidide; lactam N-11) | 7.47 |
| CC[C@H](C)[C@@H]1NC(=O)[C@H](CC(C)C)N(C)C(=O)C[C@@H](C(=O)N(C)C)N(C)C(=O)[C@H](C2CCCC2)N(C)C(=O)[C@H](C)NC(=O)[C@@H](C)NC(=O)[C@H](CCc2ccc(C(F)(F)F)c(Cl)c2)NC(=O)CN(C)C(=O)[C@H](CC2CCCCC2)N(C)C(=O)[C@@H]2CCN2C(=O)[C@H](C)N(C)C1=O [Compound 736] ([NMeL]I[NMeA][Aze][NMeCha][Sar][hPhe(3-Cl-4-CF3)][dA]A[NMeGly(cPent)][NMeD]-NMe2; lactam N-11) | 7.43 |
| CC[C@H](C)[C@@H]1NC(=O)[C@H](CC(C)C)N(C)C(=O)C[C@@H](C(=O)N(C)C)N(C)C(=O)[C@H]([C@@H](C)CC)N(C)C(=O)C2(CCCC2)NC(=O)[C@H](Cc2ccc(F)c(F)c2)N(C)C(=O)[C@H](CCc2ccc(C(F)(F)F)c(Cl)c2)NC(=O)CN(C)C(=O)[C@H](Cc2ccc(C)cc2)N(C)C(=O)[C@@H]2CCN2C(=O)[C@H](C)N(C)C1=O [Compound 1943] ([NMeL]I[NMeA][Aze][NMePhe(4-Me)][Sar][hPhe(3-Cl-4-CF3)][NMePhe(3,4-F2)][Ac5c][NMeI][NMeD]-NMe2; lactam N-11) | 8.10 |
| CC[C@H](C)[C@@H]1NC(=O)[C@H](CC(C)C)N(C)C(=O)C[C@@H](C)N(C)C(=O)[C@H](CCC(C)C)N(C)C(=O)C2(CCCC2)NC(=O)[C@@H]2CCCN2C(=O)[C@H](CCc2ccc(C(F)(F)F)c(Cl)c2)NC(=O)CN(C)C(=O)[C@H](CC2CCCCC2)N(C)C(=O)CN(C)C(=O)CN(C)C1=O [Compound 22] (cyclo([Ac5c][NMehLeu][NMedβ3hAla][NMeL]I[Sar][Sar][NMeCha][Sar][hPhe(3-Cl-4-CF3)]P)) | 6.96 |
| CC[C@H](C)[C@@H]1NC(=O)[C@H](C)N(C)C(=O)C[C@@H](C(=O)N2CCCC2)N(C)C(=O)[C@H](CC(C)C)NC(=O)[C@H](Cc2ccccc2)N(C)C(=O)[C@H](C)NC(=O)[C@H](Cc2cccc(I)c2)NC(=O)CN(C)C(=O)[C@H](Cc2ccc(OC)cc2)N(C)C(=O)[C@@H]2CCN2C(=O)[C@H](C)N(C)C1=O [Compound 604] ([NMeA]I[NMeA][Aze][NMeY](Me)[Sar][Phe(3-I)]A[NMeF]L[NMeD]-Pyrrolidide; lactam N-11) | 7.80 |
| CCCOC[C@H]1C(=O)N(C)CC(=O)N[C@@H](CCc2ccc(C(F)(F)F)c(F)c2)C(=O)N2CCC[C@H]2C(=O)NC2(CCCC2)C(=O)N(C)[C@@H](C2CCCC2)C(=O)N(C)[C@H](C(=O)N2CCOCC2)CC(=O)N(C)[C@@H](CC(C)C)C(=O)N[C@@H]([C@@H](C)CC)C(=O)N(C)[C@@H](C)C(=O)N2CC[C@H]2C(=O)N1C [Compound 9, (5S,8S,11S,15S,18S,23aS,29S,35S,37aS)-8-((S)-sec-butyl)-18-cyclopentyl-29-(3-fluoro-4-(trifluoromethyl)phenethyl)-11-isobutyl-5,6,12,16,19,33,36-heptamethyl-15-(morpholine-4-carbonyl)-35-(propoxymethyl)docosahydro-2H,4H-spiro[azeto[2,1-u]pyrrolo[2,1-i][1,4,7,10,13,16,19,22,25,28,31]undecaazacyclotetratriacontine-21,1′-cyclopentan]-4,7,10,13,17,20,23,28,31,34,37(14H,22H)-undecaone] ([NMeL]I[NMeA][Aze][NMeS](Propyl)[Sar][hPhe(3-F,4-CF3)]P[Ac5c][NMeGly(cPent)][NMeD]-Morpholide; lactam N-11) | 8.82 |
| C#CC[C@@H]1NC(=O)[C@H](Cc2cccc(I)c2)NC(=O)CN(C)C(=O)[C@H](Cc2ccc(F)cc2)N(C)C(=O)[C@@H]2CCN2C(=O)[C@H](C)N(C)C(=O)[C@H]([C@@H](C)CC)NC(=O)[C@H](CC(C)C)N(C)C(=O)C[C@@H](C(=O)N2CCCCC2)N(C)C(=O)[C@H](CC(C)C)NC(=O)C(C)(C)N(C)C1=O [Compound 1230] ([NMeL]I[NMeA][Aze][NMePhe(4-F)][Sar][Phe(3-I)][Pra][NMeAib]L[NMeD]-Piperidide; lactam N-11) | 7.01 |
| CC[C@H](C)[C@@H]1NC(=O)[C@H](CC(C)C)N(C)C(=O)C[C@@H](C(=O)N2CCCCC2)N(C)C(=O)[C@H](CC(C)C)NC(=O)C(C)(C)N(C)C(=O)[C@H](CCc2ccccc2)NC(=O)[C@H](Cc2cccc(I)c2)NC(=O)CN(C)C(=O)[C@H](Cc2ccc(C)cc2)N(C)C(=O)CN(C)C(=O)CN(C)C1=O [Compound 13] ([NMeL]I[Sar][Sar][NMePhe(4-Me)][Sar][Phe(3-I)][hPhe][NMeAib]L[NMeD]-Piperidide; lactam N-11) | 7.42 |
| CC[C@H](C)[C@@H]1NC(=O)[C@H](C2CCC2)N(C)C(=O)C[C@@H](C(=O)N2CCCC2)N(C)C(=O)[C@H](C2CCCCC2)N(C)C(=O)C2(CCCC2)NC(=O)[C@@H]2CC(F)(F)CN2C(=O)[C@H](CCc2ccc(C(F)(F)F)c(Cl)c2)NC(=O)CN(C)C(=O)[C@H](CC2CCCCC2)N(C)C(=O)CN(C)C(=O)CN(C)C1=O [Compound 1363] ([NMeGly(cBu)]I[Sar][Sar][NMeCha][Sar][hPhe(3-Cl-4-CF3)][Pro(4,4-F2)][Ac5c][NMeChg][NMeD]-Pyrrolidide; lactam N-11) | 9.24 |
| CC[C@H](C)[C@@H]1NC(=O)[C@H](CC(C)C)N(C)C(=O)C[C@@H](C(=O)N2CCC2)N(C)C(=O)[C@H](C2CCCC2)N(C)C(=O)C2(CCCC2)NC(=O)[C@@H]2CCCN2C(=O)[C@H](CCc2ccc(C(F)(F)F)c(Cl)c2)NC(=O)CN(C)C(=O)[C@H](CC2CCCCC2)N(C)C(=O)[C@@H]2CCN2C(=O)[C@H](C)N(C)C1=O [Compound 515] ([NMeL]I[NMeA][Aze][NMeCha][Sar][hPhe(3-Cl-4-CF3)]P[Ac5c][NMeGly(cPent)][NMeD]-{Azetidin(1-yl)}; lactam N-11) | 9.26 |
| CC[C@H](C)[C@@H]1NC(=O)[C@H](CC(C)C)N(C)C(=O)C[C@@H](C(=O)N2CCOCC2)N(C)C(=O)[C@H](C2CCCCC2)N(C)C(=O)C2(CCC2)NC(=O)[C@@H]2CCCN2C(=O)[C@H](CCc2ccc(C(F)(F)F)c(Cl)c2)NC(=O)CN(C)C(=O)[C@H](CC2CCCCC2)N(C)C(=O)CN(C)C(=O)CN(C)C1=O [Compound 1875] ([NMeL]I[Sar][Sar][NMeCha][Sar][hPhe(3-Cl-4-CF3)]P[Ac4c][NMeChg][NMeD]-Morpholide; lactam N-11) | 9.38 |
| COC[C@@H]1NC(=O)[C@H](CC(C)C)N(C)C(=O)C[C@@H](C(=O)N2CCCCC2)N(C)C(=O)[C@H](C(C)C)N(C)C(=O)C2(CCCC2)NC(=O)[C@@H]2CCCN2C(=O)[C@H](CCc2ccc(C(F)(F)F)c(Cl)c2)NC(=O)CN(C)C(=O)[C@H](CC2CCCCC2)N(C)C(=O)[C@@H]2CCN2C(=O)[C@H](C)N(C)C1=O [Compound 7] ([NMeL]S(Me)[NMeA][Aze][NMeCha][Sar][hPhe(3-Cl-4-CF3)]P[Ac5c][NMeV][NMeD]-Piperidide; lactam N-11) | 7.74 |
| CC[C@H](C)[C@@H]1NC(=O)CCNC(=O)[C@H](Cc2cccc(F)c2)N(C)C(=O)[C@H](C2CCCCC2)N(C)C(=O)C2(CCCC2)NC(=O)[C@@H]2CCCN2C(=O)[C@H](CCc2ccc(C(F)(F)F)c(Cl)c2)NC(=O)CN(C)C(=O)[C@H](CC2CCCCC2)N(C)C(=O)CN(C)C(=O)CN(C)C1=O [Compound 237] (cyclo([Ac5c][NMeChg][NMePhe(3-F)][βAla]I[Sar][Sar][NMeCha][Sar][hPhe(3-Cl-4-CF3)]P)) | 7.38 |
| CC[C@H](C)[C@@H]1NC(=O)[C@H](CC(C)C)N(C)C(=O)C[C@@H](C(=O)N2CCCCC2)N(C)C(=O)[C@H](C2CCCCC2)N(C)C(=O)C2(CCCC2)NC(=O)[C@@H]2CCCN2C(=O)[C@H](CCc2ccc(C(F)(F)F)c(Cl)c2)NC(=O)[C@H](C)N(C)C(=O)[C@H](CC2CCCCC2)N(C)C(=O)CN(C)C(=O)CN(C)C1=O [Compound 722] ([NMeL]I[Sar][Sar][NMeCha][NMeA][hPhe(3-Cl-4-CF3)]P[Ac5c][NMeChg][NMeD]-Piperidide; lactam N-11) | 6.38 |
| CC[C@H](C)[C@@H]1NC(=O)[C@H](CC(C)C)N(C)C(=O)C[C@@H](C(=O)N2CCCCC2)N(C)C(=O)[C@H](C2CCCCC2)N(C)C(=O)[C@H](C(C)C)NC(=O)[C@@H]2CCCN2C(=O)[C@H](CCc2ccc(C(F)(F)F)c(Cl)c2)NC(=O)CN(C)C(=O)[C@H](CC2CCCCC2)N(C)C(=O)CN(C)C(=O)CN(C)C1=O [Compound 1157] ([NMeL]I[Sar][Sar][NMeCha][Sar][hPhe(3-Cl-4-CF3)]PV[NMeChg][NMeD]-Piperidide; lactam N-11) | 8.80 |
